According to ChEMBL document CHEMBL5608235, “Tricyclic Benzo[1,3]oxazinyloxazolidinones as Potent Antibacterial Agents against Drug-Resistant Pathogens” (J Med Chem, 2024):
≈ marks a conversion by molar mass, not a printed value.

How the values were obtained:
[1] = system: Mycobacterium tuberculosis; assay: Antibacterial activity against isoniazid/streptomycin/rifampicin/ethambutol/rifabutin/para-axminosalicylate/ofloxacin resistant Mycobacterium tuberculosis 13946 assessed as inhibition of bacterial growth incubated for 7 days by alamar blue assay; format: functional; conditions: Mycobacterium tuberculosis, 13946, 168 h; time 7 day
[2] = system: Mycobacterium tuberculosis; assay: Antibacterial activity against isoniazid/streptomycin/rifampicin/ethambutol/para-axminosalicylate/prothionamide/capreomycin resistant Mycobacterium tuberculosis 14862 assessed as inhibition of bacterial growth incubated for 7 days by alamar blue assay; format: functional; conditions: Mycobacterium tuberculosis, 14862, 168 h; time 7 day

## CC(=O)NC[C@@H]1OC(=O)N2Cc3c(cc(F)c(-c4ccc(-c5nnn(C)n5)nc4)c3F)O[C@@H]12
[1]
  MIC: 0.28 µg/mL (≈ 0.612 µM)
[2]
  MIC: 0.33 µg/mL (≈ 0.721 µM)

## CC(=O)NC[C@@H]1OC(=O)N2Cc3cc(-c4ccc(C#N)cc4)c(F)cc3O[C@@H]12
[1]
  MIC: 0.11 µg/mL (≈ 0.288 µM)
[2]
  MIC: 0.41 µg/mL (≈ 1.08 µM)

## COC(=O)NC[C@@H]1OC(=O)N2Cc3cc(-c4ccc(C#N)cc4)c(F)cc3O[C@@H]12
[1]
  MIC: 0.56 µg/mL (≈ 1.41 µM)
[2]
  MIC: 0.24 µg/mL (≈ 0.604 µM)

## CC(=O)NC[C@@H]1OC(=O)N2Cc3c(cc(F)c(-c4ccc(C#N)nc4)c3F)O[C@@H]12
[1]
  MIC: 0.48 µg/mL (≈ 1.2 µM)
[2]
  MIC: 0.47 µg/mL (≈ 1.17 µM)

## COC(=O)NC[C@@H]1OC(=O)N2Cc3cc(-c4ccc(-c5nnn(C)n5)nc4)c(F)cc3O[C@@H]12
[1]
  MIC: 0.39 µg/mL (≈ 0.856 µM)
[2]
  MIC: 0.22 µg/mL (≈ 0.483 µM)

## COC(=O)NC[C@@H]1OC(=O)N2Cc3cc(-c4ccc(C#N)nc4)c(F)cc3O[C@@H]12
[1]
  MIC: 0.87 µg/mL (≈ 2.18 µM)
[2]
  MIC: 0.6 µg/mL (≈ 1.51 µM)

## NNC(=O)c1ccncc1 [ISONIAZID]
[1]
  MIC: 4.78 µg/mL (≈ 34.9 µM)
[2]
  MIC: > 10 µg/mL

## CO[C@H]1/C=C/O[C@@]2(C)Oc3c(C)c(O)c4c(O)c(c(/C=N/N5CCN(C)CC5)c(O)c4c3C2=O)NC(=O)/C(C)=C\C=C\[C@H](C)[C@H](O)[C@@H](C)[C@@H](O)[C@@H](C)[C@H](OC(C)=O)[C@@H]1C [RIFAMPIN]
[1]
  MIC: > 10 µg/mL
[2]
  MIC: > 10 µg/mL
